Experimental data as given in patent US20250214951A1, “3-PHENYLISOXAZOLE DERIVATIVE, AND PHARMACEUTICAL COMPOSITION FOR PREVENTING OR TREATING EYE DISEASE, CONTAINING SAME AS ACTIVE INGREDIENT” (VASTHERA CO., LTD., priority 2022, published 2025).

How the values were obtained:
[1] = test system: A2E-BDP present in human retinal pigment epithelial cells (ARPE-19); assay: Screening of ability to remove A2E-fluorescent labeling substance (A2E-BDP), lysate fluorescence; type: cell-based; conditions: ARPE-19, 24 h, ARPE-19 loaded with 10 μM A2E-BDP 24 h, test compound 50 μM once, fluorescence ex 485/em 535 nm, read-out: Capacity (%) to remove A2E-BDP at 50 μM
Procedure: (§1) The human retinal pigment epithelial cell line (ARPE-19) used in the experiment was provided by ATCC (American Type Culture Collection). The ARPE-19 cell line was cultured in DMEM medium containing 10% FBS. After culture, the cells were dispensed into 96-well plates at a concentration of 4×10^3 cells/well and cultured for 24 hours. The ARPE-19 cell line was treated with A2E-fluorescent labeling substance (A2E-BDP) at a concentration of 10 μM for 24 hours to induce the accumulation of A2E-BDP in the ARPE-19 cell line.
(§2) In order to evaluate the intracellular A2E removal ability of the compound of the present invention, an easily detectable A2E-fluorescent labeling substance (A2E-BDP) was used. The ARPE-19 cells prepared by the above method were treated with each test compound at a concentration of 50 μM once, and then cultured for 24 hours. The cells were lysed by adding a cell lysis buffer containing a protease inhibitor (50 mM Tris-chloride, pH 8.0, 150 mM sodium chloride, 1% NP-40, 1% sodium deoxycholate, 1% sodium dodecyl sulfate, and 2 mM ethylenediamine tetraacetic acid) to each 96-well. The prepared cell lysate was transferred to a white 96-well plate, and the fluorescence intensity was measured using a fluorescence microplate reader (VICTOR™ X3, Perkin Elmer, USA) (excitation 485 nm, emission 535 nm).

LC3-II [2] = assay: Concentration-dependent autophagy activation through increase of LC3-II (FIGS. 15 and 16); type: cell-based, human
Procedure: (§3) ARPE-19 was dispensed into a 6-well plate at a concentration of 1×10^5 cells/well and cultured for 24 hours. Then, cells were treated with example 17 compound of the present invention at concentrations of 10, 25, and 50 μM for 12 hours. Then, a cell lysis buffer containing a protease inhibitor was added to prepare a cell lysate. The LC3-II level was measured by Western immunoblotting using an anti-LC3-II antibody (Cell Signaling Technology, MA, USA). As an internal control, an antibody against β-actin (Cell Signaling Technology) was used and measured by Western immunoblotting in the same manner as above, and is shown in FIG. 6 (upper graph).
(§4) The autophagy activation effect of example compounds expected to have autophagy activation ability and low cytotoxicity among the example compounds in Table 2 above in human retinal pigment epithelial cells was evaluated according to Experimental Example 7. That is, the autophagy activation effect through the increase of LC3-II was evaluated in a concentration-dependent manner, and the results are shown in FIGS. 15 and 16.

LC3-II [3] = assay: LC3-II production capacity at 10 μM (Table 4); type: cell-based; conditions: Homo sapiens, 12 h
Procedure: as §3, §4

[4] = test system: p62 protein phosphorylated at serine 349 (p-p62 (S349)); assay: Autophagy activation by increase of p-p62 (S349), Western immunoblotting; type: cell-based, human; conditions: indicated concentrations; FIG. 14
Procedure: The cells were treated with the test compounds at the indicated concentrations, and the autophagy activation effect through the increase of p62 protein (p-p62 (S349)) phosphorylated at serine 349 residue was measured by Western immunoblotting using an anti-p-p62 antibody, and the results are shown in FIG. 14. The increase in the intracellular P-p62 ([…]) level is one of the major indicators of autophagy activation.

A2E-BDP in ARPE-19 cells = assay: A2E-BDP removal ability by concentration of other example compounds; type: cell-based, human; conditions: indicated concentrations; FIG. 13
Procedure: as §1, §2
The A2E-fluorescent labeling substance (A2E-BDP) removal ability was evaluated according to Experimental Example 1 (except that the test compound was treated at the indicated concentration).

SMILES	inhibition at 50 µM [1] [%]	further results
CCOC(=O)COCc1cc(-c2cc(Br)ccc2OC)no1 [Example 12, ethyl 2-((3-(5-bromo-2-methoxyphenyl)isoxazole-5-yl)methoxy)acetate]	21.7	–
C=CCc1ccc(OC)c(-c2cc(CN3CCN(Cc4ccccc4)CC3)on2)c1 [Example 23, 3-(5-allyl-2-methoxyphenyl)-5-((4-benzylpiperazine-1-yl)methyl)isoxazole]	45.5	–
COc1ccc(Br)cc1-c1cc(CN2CCNCC2)on1 [Example 28, 3-(5-bromo-2-methoxyphenyl)-5-(piperazine-1-ylmethyl)isoxazole]	–	autophagy activation effect through the increase of LC3-II (LC3-II [2]): excellent autophagy activation effects; fold induction at 10 µM (LC3-II [3]): 4.6
C=CCc1ccc(OC)c(-c2cc(CN3CCN(C(=O)OC(C)(C)C)CC3)on2)c1 [Example 25, tert-butyl 4-((3-(5-allyl-2-methoxyphenyl)isoxazole-5-yl)methyl)piperazine-1-carboxylate]	45.9	–
C=CCc1ccc(O)c(-c2cc(CO)on2)c1 [Example 16, 4-allyl-2-(5-(hydroxymethyl)isoxazole-3-yl)phenol]	49.9	–
CCCc1cc(-c2cc(Br)ccc2O)no1 [Example 2, 4-bromo-2-(5-propylisoxazole-3-yl)phenol]	28.2	–
C=CCc1ccc(OC)c(-c2cc(CN3CCN(C)CC3)on2)c1 [Example 41, 3-(5-allyl-2-methoxyphenyl)-5-((4-methylpiperazine-1-yl)methyl)isoxazole]	–	autophagy activation effect through the increase of LC3-II (LC3-II [2]): excellent autophagy activation effects; fold induction at 10 µM (LC3-II [3]): 2.3
C=CCc1ccc(OC)c(-c2cc(CCC)on2)c1 [Example 4, 3-(5-allyl-2-methoxyphenyl)-5-propylisoxazole]	24.7	–
C=CCOCc1cc(-c2cc(Br)ccc2OC)no1 [Example 9, 5-((allyloxy)methyl)-3-(5-bromo-2-methoxyphenyl)isoxazole]	26.2	–
CCCc1ccc(OC)c(-c2cc(CCC)on2)c1 [Example 3, 3-(2-methoxy-5-propylphenyl)-5-propylisoxazole]	0.6	–
COc1ccc(C(F)(F)F)cc1-c1cc(CN2CCNCC2)on1 [Example 34, 3-(2-methoxy-5-(trifluoromethyl)phenyl)-5-(piperazine-1-ylmethyl)isoxazole]	–	autophagy activation effect through the increase of LC3-II (LC3-II [2]): excellent autophagy activation effects; fold induction at 10 µM (LC3-II [3]): 2.5
C=CCc1ccc(OC)c(-c2cc(CN3CCN(CC(=O)OCC)CC3)on2)c1 [Example 24, ethyl 2-(4-((3-(5-allyl-2-methoxyphenyl)isoxazole-5-yl)methyl)piperazine-1-yl)acetate]	38.5	–
CCCc1cc(-c2cc(CN3CCNCC3)on2)c(OC)cc1F [Example 58, 3-(4-fluoro-2-methoxy-5-propylphenyl)-5-(piperazine-1-ylmethyl)isoxazole]	–	autophagy activation effect through the increase of LC3-II (LC3-II [2]): excellent autophagy activation effects; fold induction at 10 µM (LC3-II [3]): 3.2
C=CCc1ccc(OC)c(-c2cc(COCc3ccccc3)on2)c1 [Example 18, 3-(5-allyl-2-methoxyphenyl)-5-((benzyloxy)methyl)isoxazole]	≥ 60	autophagy activation through increase of p-p62 (S349) [4]: activated autophagy in a concentration-dependent manner; A2E-BDP removal ability by concentration (amount of A2E) (A2E-BDP in ARPE-19 cells): concentration-dependent decrease in the amount of A2E
CCCc1ccc(OC(F)(F)F)c(-c2cc(CN3CCN(C)CC3)on2)c1 [Example 60, 5-((4-methylpiperazine-1-yl)methyl)-3-(5-propyl-2-(trifluoromethoxy)phenyl)isoxazole]	–	autophagy activation effect through the increase of LC3-II (LC3-II [2]): excellent autophagy activation effects; fold induction at 10 µM (LC3-II [3]): 3.1
OCc1cc(-c2cc(Br)ccc2O)no1 [Example 8, 4-bromo-2-(5-(hydroxymethyl)isoxazole-3-yl)phenol]	-15.3	–
C=CCc1ccc(OC)c(-c2cc(COCC(=O)OCC)on2)c1 [Example 19, ethyl 2-((3-(5-allyl-2-methoxyphenyl)isoxazole-5-yl)methoxy)acetate]	37.4	–

SMILES	inhibition at 50 µM [1] [%]	further results
CCCc1cc(-c2cc(Br)ccc2OC)no1 [Example 1, 3-(5-bromo-2-methoxyphenyl)-5-propylisoxazole]	20.8	–
C=CCc1ccc(OC)c(-c2cc(CO)on2)c1 [Example 15, (3-(5-allyl-2-methoxyphenyl)isoxazole-5-yl)methanol]	48.1	–
CCCc1ccc(O)c(-c2cc(CCC)on2)c1 [Example 6, 4-propyl-2-(5-propylisoxazole-3-yl)phenol]	24	–
CCCc1ccc(OC)c(-c2cc(COC)on2)c1 [Example 20, 3-(2-methoxy-5-propylphenyl)-5-(methoxymethyl)isoxazole]	17.2	–
CCCc1cc(-c2cc(CN3CCN(C)CC3)on2)c(OC)cc1F [Example 59, 3-(4-fluoro-2-methoxy-5-propylphenyl)-5-((4-methylpiperazine-1-yl)methyl)isoxazole]	–	autophagy activation effect through the increase of LC3-II (LC3-II [2]): excellent autophagy activation effects; fold induction at 10 µM (LC3-II [3]): 3.1
COc1ccc(Br)cc1-c1cc(CO)on1 [Example 7, (3-(5-bromo-2-methoxyphenyl)isoxazole-5-yl)methanol]	16.6	–
CCCc1ccc(O)c(-c2cc(CO)on2)c1 [Example 14, 2-(5-(hydroxymethyl)isoxazole-3-yl)-4-propylphenol]	35.2	–
COc1ccc(C(C)C)cc1-c1cc(CN2CCNCC2)on1 [Example 47, 3-(5-isopropyl-2-methoxyphenyl)-5-(piperazine-1-ylmethyl)isoxazole]	–	autophagy activation effect through the increase of LC3-II (LC3-II [2]): excellent autophagy activation effects; fold induction at 10 µM (LC3-II [3]): 2.7
CCCc1ccc(OC)c(-c2cc(CN3CCN(C)CC3)on2)c1 [Example 42, 3-(2-methoxy-5-propylphenyl)-5-((4-methylpiperazine-1-yl)methyl)isoxazole]	–	autophagy activation effect through the increase of LC3-II (LC3-II [2]): excellent autophagy activation effects; fold induction at 10 µM (LC3-II [3]): 2.3
C=CCc1ccc(O)c(-c2cc(CCC)on2)c1 [Example 5, 4-allyl-2-(5-propylisoxazole-3-yl)phenol]	26.9	–
CCCc1ccc(OC)c(-c2cc(CN3CCN(C(=O)OC(C)(C)C)CC3)on2)c1 [Example 26, tert-butyl 4-((3-(2-methoxy-5-propylphenyl)isoxazole-5-yl)methyl)piperazine-1-carboxylate]	≥ 60	autophagy activation through increase of p-p62 (S349) [4]: activated autophagy in a concentration-dependent manner; A2E-BDP removal ability by concentration (amount of A2E) (A2E-BDP in ARPE-19 cells): concentration-dependent decrease in the amount of A2E
COc1ccc(Br)cc1-c1cc(COCc2ccccc2)on1 [Example 11, 5-((benzyloxy)methyl)-3-(5-bromo-2-methoxyphenyl)isoxazole]	≥ 60	autophagy activation through increase of p-p62 (S349) [4]: activated autophagy in a concentration-dependent manner; A2E-BDP removal ability by concentration (amount of A2E) (A2E-BDP in ARPE-19 cells): concentration-dependent decrease in the amount of A2E
C=CCc1ccc(OC)c(-c2cc(CN3CCN(CC=C)CC3)on2)c1 [Example 22, 3-(5-allyl-2-methoxyphenyl)-5-((4-allylpiperazine-1-yl)methyl)isoxazole]	47.4	–
CCCc1ccc(OC)c(-c2cc(CN3CCNCC3)on2)c1 [Example 30, 3-(2-methoxy-5-propylphenyl)-5-(piperazine-1-ylmethyl)isoxazole]	–	autophagy activation effect through the increase of LC3-II (LC3-II [2]): excellent autophagy activation effects; fold induction at 10 µM (LC3-II [3]): 2.3
CCCc1ccc(OC)c(-c2cc(CO)on2)c1 [Example 10, (3-(2-methoxy-5-propylphenyl)isoxazole-5-yl)methanol]	7.7	–
COCc1cc(-c2cc(Br)ccc2OC)no1 [Example 13, 3-(5-bromo-2-methoxyphenyl)-5-(methoxymethyl)isoxazole]	31	–
